SMILES strings stand for the structures.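 Results reflect a 48-hour exposure of cells in 96-well plates to compound at five concentrations. At the TGI there is no net growth.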

Test systems include HS 578T breast; MDA-MB-435; NCI-H460 lung; U251 CNS; SF-539 CNS; HOP-62 NSCLC; CCRF-CEM leukemia; K-562 leukemia; SR leukemia; T-47D breast.
Assay in all cases: NCI anticancer screen, dose series, 48 h

For the compound `c1ccc(-c2csc3c2-n2cccc2C3N2CCCC2)cc1` (stereo unspecified), the TGI in the assay with HS 578T breast, in the assay with MDA-MB-435, with NCI-H460 lung, in the assay with U251 CNS, in the assay on SF-539 CNS and with HOP-62 NSCLC was more than 100 µM in each case. Also, the TGI with CCRF-CEM leukemia, with K-562 leukemia and in the assay on SR leukemia was more than 100 µM each time.
Turning to `CCC(=O)OC1CCn2c1nc1c2C(=O)C(C)=C(NC(C)=O)C1=O` (stereo unspecified), the TGI in the assay on NCI-H460 lung turned out to be 14.1 µM; in the assay on U251 CNS, 3.84 µM; in the assay with SF-539 CNS, 3.21 µM; with HOP-62 NSCLC it was 24.1 µM; in the assay with CCRF-CEM leukemia it was 3.89 µM; with K-562 leukemia, 4.43 µM. In the assay on SR leukemia, the TGI amounted to 5.66 µM.
For `CC1CC(=O)Nc2ccc(Cl)cc2N1C(=O)CN1CCC(CCCCN(C)C)CC1` (stereo unspecified), the TGI with NCI-H460 lung, with U251 CNS, in the assay on HOP-62 NSCLC, in the assay on CCRF-CEM leukemia, in the assay on K-562 leukemia and in the assay with SR leukemia was more than 100 µM each time.
Take `CC(=O)Nc1ccc(-c2nnc(SCC(=O)Nc3cccc(C)c3)o2)cc1`: the TGI in the assay with NCI-H460 lung is 28.6 µM; in the assay on U251 CNS it was 26.3 µM; with SF-539 CNS, 27.8 µM; in the assay on HOP-62 NSCLC it was 73.2 µM; with CCRF-CEM leukemia it was more than 100 µM; in the assay on K-562 leukemia it was more than 100 µM. Further, in the assay with SR leukemia, the TGI is more than 100 µM.
On to `CCCCn1c(-c2ccccc2)cs/c1=N\N=C1C=C(C(C)(C)C)C(=O)C(C(C)(C)C)=C1`, for which the TGI with NCI-H460 lung, in the assay with U251 CNS, in the assay with SF-539 CNS, with HOP-62 NSCLC, in the assay on CCRF-CEM leukemia and in the assay on K-562 leukemia was more than 100 µM throughout. This compound registered a TGI in the assay with SR leukemia of more than 100 µM.
In the case of `CCOC(=O)COc1cc(-c2ccccc2F)nc2cc3c(cc12)OCO3`, the TGI was more than 100 µM with MDA-MB-435; more than 100 µM with U251 CNS; more than 100 µM in the assay with SF-539 CNS; more than 100 µM in the assay on HOP-62 NSCLC; more than 100 µM in the assay on T-47D breast; 55.7 µM with CCRF-CEM leukemia. In addition, in the assay with K-562 leukemia, the TGI is more than 100 µM.
On to `CC(NC(=O)Cc1ccc(OP(=O)(OCc2ccc([N+](=O)[O-])o2)N(C)CCCCCl)cc1)c1ccc(OCC2CCCCC2)c(C(N)=O)c1` (stereo unspecified), for which the TGI with MDA-MB-435 amounted to 3.95 µM; in the assay with NCI-H460 lung, 13.1 µM; in the assay with U251 CNS, 5.28 µM; in the assay with SF-539 CNS it was 4.09 µM; with HOP-62 NSCLC it was 6.07 µM; in the assay on T-47D breast, 3.84 µM. Further, the TGI worked out at 6.14 µM in the assay on CCRF-CEM leukemia, 9.23 µM in the assay on K-562 leukemia and 4.38 µM in the assay on SR leukemia.
As to `Cc1ccc(Nc2c3c(c(C#N)c4nc5ccccc5n24)CCCC3)cc1`, the TGI with HS 578T breast is more than 100 µM; in the assay with MDA-MB-435 it was 45.8 µM; in the assay on NCI-H460 lung, more than 100 µM; with U251 CNS, more than 100 µM; in the assay on SF-539 CNS, 43.4 µM; in the assay on T-47D breast it was more than 100 µM. The TGI in the assay with CCRF-CEM leukemia was 31.6 µM; in the assay on K-562 leukemia, more than 100 µM.
With `C/C=C/CC(C(=O)OCC)(N(C)C(=O)OC(C)(C)C)S(=O)(=O)c1ccc(C)cc1` (stereo unspecified), the TGI in the assay with HS 578T breast was more than 100 µM; with MDA-MB-435, 83 µM; in the assay on U251 CNS it was more than 100 µM; in the assay with SF-539 CNS it was more than 100 µM; with HOP-62 NSCLC it was more than 100 µM; in the assay on T-47D breast, more than 100 µM. Also, the TGI with CCRF-CEM leukemia and in the assay with K-562 leukemia was more than 100 µM throughout.
Take `C/C=C1\CC(C(=O)OCC)CCCCCCC1=O` (stereo unspecified): the TGI in the assay with HS 578T breast, with MDA-MB-435, with U251 CNS, in the assay on SF-539 CNS, in the assay on HOP-62 NSCLC and in the assay with T-47D breast was more than 100 µM each time. For the same compound, the TGI with CCRF-CEM leukemia was more than 100 µM.
As for `COc1ccc(-c2nc(-c3ccc(OC)cc3)n(-c3ccccc3)n2)cc1`, the TGI in the assay with HS 578T breast, in the assay with MDA-MB-435, in the assay on NCI-H460 lung, in the assay with U251 CNS, in the assay with SF-539 CNS and with HOP-62 NSCLC was more than 100 µM in each case. The TGI in the assay on T-47D breast and in the assay on CCRF-CEM leukemia was more than 100 µM each time.
Turning to `O=C(NN1C(=O)C(Cl)C1c1cccc(O)c1)c1ccccc1O` (stereo unspecified), the TGI in the assay on NCI-H460 lung, with U251 CNS, in the assay with SF-539 CNS, in the assay with CCRF-CEM leukemia and with K-562 leukemia was more than 100 µM each time.
Consider `O=c1oc2cc(O)ccc2c2[nH]c3cc(O)ccc3c12`, for which the TGI is 96.4 µM in the assay with NCI-H460 lung; more than 100 µM in the assay with U251 CNS; 49.9 µM in the assay with SF-539 CNS; 59.6 µM with HOP-62 NSCLC; more than 100 µM with CCRF-CEM leukemia; more than 100 µM in the assay on K-562 leukemia. Also, the TGI in the assay on SR leukemia is more than 100 µM.
As for `Cc1ccc(S(=O)(=O)NC(=O)C2S(=O)(=O)OCCOS2(=O)=O)cc1`, the TGI in the assay on SF-539 CNS, in the assay on HOP-62 NSCLC, in the assay with CCRF-CEM leukemia, in the assay with K-562 leukemia and in the assay on SR leukemia was more than 100 µM each time.
On to `Cc1ccsc1/C=N/NC1=NCCN1`, for which the TGI in the assay with HS 578T breast, in the assay on MDA-MB-435, in the assay on U251 CNS, in the assay on HOP-62 NSCLC, in the assay with T-47D breast and with CCRF-CEM leukemia was more than 100 µM in each case. The TGI in the assay on K-562 leukemia was more than 100 µM.
With `CCN(CC)CC1CCCCN1CC(=O)N1c2cc(Cl)ccc2NC(=O)CC1C` (stereo unspecified), the TGI in the assay on NCI-H460 lung, with U251 CNS, in the assay with SF-539 CNS, in the assay on HOP-62 NSCLC, with CCRF-CEM leukemia and in the assay with K-562 leukemia was more than 100 µM throughout. In the assay with SR leukemia, the TGI is more than 100 µM.
Take `COc1cc(C2CC(C)(N3CCOCC3)Oc3cc4c(cc32)OCO4)cc(OC)c1OC` (stereo unspecified): the TGI in the assay with HS 578T breast is more than 56.2 µM; with MDA-MB-435, more than 100 µM; in the assay with NCI-H460 lung, more than 100 µM; in the assay with U251 CNS, more than 100 µM; in the assay on HOP-62 NSCLC, more than 100 µM; with K-562 leukemia it was more than 100 µM. In addition, the TGI in the assay with SR leukemia is more than 100 µM.
